Data taken from US20240217957A1, “HETEROCYCLIC COMPOUND AND USE THEREOF” (TAKEDA PHARMACEUTICAL COMPANY LIMITED, priority 2022, published 2024).

Target: T1, human OX2 receptor (Homo sapiens, UniProt O43614)
T1 construct: expressed in transfected cells
T1 sequence (O43614 1-444): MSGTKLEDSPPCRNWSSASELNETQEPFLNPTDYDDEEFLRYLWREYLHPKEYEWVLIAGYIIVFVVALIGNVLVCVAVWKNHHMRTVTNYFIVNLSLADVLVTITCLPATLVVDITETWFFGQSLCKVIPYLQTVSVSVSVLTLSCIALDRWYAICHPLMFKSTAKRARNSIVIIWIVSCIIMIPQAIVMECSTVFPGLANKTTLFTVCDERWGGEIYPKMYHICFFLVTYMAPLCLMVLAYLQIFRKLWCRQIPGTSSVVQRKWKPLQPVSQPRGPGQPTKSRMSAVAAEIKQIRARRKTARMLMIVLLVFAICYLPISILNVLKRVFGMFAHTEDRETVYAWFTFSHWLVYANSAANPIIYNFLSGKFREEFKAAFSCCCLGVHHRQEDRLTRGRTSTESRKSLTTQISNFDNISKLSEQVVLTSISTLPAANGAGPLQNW
Experiment: Measurement of orexin type 2 receptor agonist activity (calcium fluorescence, Fluo-4 AM, FDSS)
Format: cell-based
Conditions: compound at 3 μM; CHO cells forcibly expressing human OX2 receptor; DMSO = 0%, 10 nM orexin A (human) = 100%
How it was run: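 Agonist response is expressed as % of the fluorescence change given by 10 nM human orexin A, with DMSO as 0%, read over 1 min 40 s on FDSS after compound addition. Cells: stable human OX2 (1-444) CHO-K1 clones, dye-loaded with Fluo-4 AM plus probenecid in HEPES-buffered HBSS with 0.1% BSA.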

Structure (SMILES)	OX2R agonist activity (3 μM, %) [%]
CS(=O)(=O)N[C@@H]1CN(C2=NOC(CF)(c3ncccc3-c3c(F)cccc3F)C2)CC1(F)F (stereo partly drawn) [Example 150, N-[(3R)-1-{5-[3-(2,6-difluorophenyl)pyridin-2-yl]-5-(fluoromethyl)-4,5-dihydro-1,2-oxazol-3-yl}-4,4-difluoropyrrolidin-3-yl]methanesulfonamide]	95
CCS(=O)(=O)N[C@@H]1CN(C2=NOC(CF)(c3ncccc3-c3c(F)cccc3F)C2)CC1(F)F (stereo partly drawn) [Example 151, N-[(3R)-1-{5-[3-(2,6-difluorophenyl)pyridin-2-yl]-5-(fluoromethyl)-4,5-dihydro-1,2-oxazol-3-yl}-4,4-difluoropyrrolidin-3-yl]ethanesulfonamide]	107
CC1(c2ncc(Cl)cc2-c2ncc(F)cc2F)CC(N2C[C@@H](NS(C)(=O)=O)C(F)(F)C2)=NO1 (stereo partly drawn) [Example 152, N-{(3R)-1-[5-(5′-chloro-3,5-difluoro[2,3′-bipyridin]-2′-yl)-5-methyl-4,5-dihydro-1,2-oxazol-3-yl]-4,4-difluoropyrrolidin-3-yl}methanesulfonamide]	107
CS(=O)(=O)N[C@@H]1CN(C2=NOC(CF)(c3ncc(C(F)F)cc3-c3c(F)cccc3F)C2)CC1(F)F (stereo partly drawn) [Example 153, N-[(3R)-1-{5-[5-(difluoromethyl)-3-(2,6-difluorophenyl)pyridin-2-yl]-5-(fluoromethyl)-4,5-dihydro-1,2-oxazol-3-yl}-4,4-difluoropyrrolidin-3-yl]methanesulfonamide]	96
Cc1cc(F)c(C2CC(N3C[C@@H](NS(C)(=O)=O)C(F)(F)C3)=NO2)c(-c2ncc(F)cc2F)c1 (stereo partly drawn) [Example 154, N-[(3R)-1-{5-[2-(3,5-difluoropyridin-2-yl)-6-fluoro-4-methylphenyl]-4,5-dihydro-1,2-oxazol-3-yl}-4,4-difluoropyrrolidin-3-yl]methanesulfonamide]	102
CS(=O)(=O)N[C@@H]1CN(C2=NOC(c3c(F)cc(F)cc3-c3c(F)cccc3F)C2)CC1(F)F (stereo partly drawn) [Example 156, N-{(3R)-4,4-difluoro-1-[5-(2′,3,5,6′-tetrafluoro[1,1′-biphenyl]-2-yl)-4,5-dihydro-1,2-oxazol-3-yl]pyrrolidin-3-yl}methanesulfonamide]	94
CS(=O)(=O)N[C@@H]1CN(C2=NOC(CF)(c3ncccc3-c3c(F)cc(F)cc3F)C2)CC1(F)F (stereo partly drawn) [Example 157, N-[(3R)-4,4-difluoro-1-{5-(fluoromethyl)-5-[3-(2,4,6-trifluorophenyl)pyridin-2-yl]-4,5-dihydro-1,2-oxazol-3-yl}pyrrolidin-3-yl]methanesulfonamide]	92
CC1(c2ncc(F)cc2-c2c(F)cccc2F)CC(N2C[C@@H](NS(C)(=O)=O)C(F)(F)C2)=NO1 (stereo partly drawn) [Example 158, N-[(3R)-1-{5-[3-(2,6-difluorophenyl)-5-fluoropyridin-2-yl]-5-methyl-4,5-dihydro-1,2-oxazol-3-yl}-4,4-difluoropyrrolidin-3-yl]methanesulfonamide]	100
CS(=O)(=O)N[C@@H]1CN(C2=NOC(c3c(F)ccc(F)c3-c3c(F)cccc3F)C2)C[C@@H]1F (stereo partly drawn) [Example 159, N-{(3R,4S)-4-fluoro-1-[5-(2′,3,6,6′-tetrafluoro[1,1′-biphenyl]-2-yl)-4,5-dihydro-1,2-oxazol-3-yl]pyrrolidin-3-yl}methanesulfonamide]	99
CS(=O)(=O)N[C@@H]1CN(C2=NOC(c3c(F)cccc3-c3c(F)cccc3F)C2)CC1(F)F (stereo partly drawn) [Example 160, N-{(3R)-4,4-difluoro-1-[5-(2′,3,6′-trifluoro[1,1′-biphenyl]-2-yl)-4,5-dihydro-1,2-oxazol-3-yl]pyrrolidin-3-yl}methanesulfonamide]	104

Second part, the compound after the results:

OX2R agonist activity (3 μM, %) [%]	Structure (SMILES)
103	Cc1ccc(C2(C)CC(N3C[C@@H](NS(C)(=O)=O)C(F)(F)C3)=NO2)c(-c2ncc(F)cc2F)c1 (stereo partly drawn) [Example 161, N-[(3R)-1-{5-[2-(3,5-difluoropyridin-2-yl)-4-methylphenyl]-5-methyl-4,5-dihydro-1,2-oxazol-3-yl}-4,4-difluoropyrrolidin-3-yl]methanesulfonamide]
103	O=S(=O)(CF)N[C@@H]1CN(C2=NO[C@](CF)(c3ncc(F)cc3-c3c(F)cccc3F)C2)C[C@@H]1F [Example 162, N-[(3R,4S)-1-{(5S)-5-[3-(2,6-difluorophenyl)-5-fluoropyridin-2-yl]-5-(fluoromethyl)-4,5-dihydro-1,2-oxazol-3-yl}-4-fluoropyrrolidin-3-yl]-1-fluoromethanesulfonamide]
98	O=S(=O)(CF)N[C@@H]1CN(C2=NOC(CF)(c3ncc(F)cc3-c3c(F)cc(F)cc3F)C2)C[C@@H]1F (stereo partly drawn) [Example 163, 1-fluoro-N-[(3R,4S)-4-fluoro-1-{5-(fluoromethyl)-5-[5-fluoro-3-(2,4,6-trifluorophenyl)pyridin-2-yl]-4,5-dihydro-1,2-oxazol-3-yl}pyrrolidin-3-yl]methanesulfonamide]
102	CS(=O)(=O)N[C@@H]1CN(C2=NOC(c3c(F)cc(F)c(F)c3-c3c(F)cccc3F)C2)C[C@@H]1F (stereo partly drawn) [Example 166, N-{(3R,4S)-4-fluoro-1-[5-(2′,3,5,6,6′-pentafluoro[1,1′-biphenyl]-2-yl)-4,5-dihydro-1,2-oxazol-3-yl]pyrrolidin-3-yl}methanesulfonamide]
98	O=S(=O)(CF)N[C@@H]1CN(C2=NOC(c3c(F)cc(F)cc3-c3c(F)cccc3F)C2)CC1(F)F (stereo partly drawn) [Example 169, N-{(3R)-4,4-difluoro-1-[5-(2′,3,5,6′-tetrafluoro[1,1′-biphenyl]-2-yl)-4,5-dihydro-1,2-oxazol-3-yl]pyrrolidin-3-yl}-1-fluoromethanesulfonamide]
102	O=S(=O)(CF)N[C@@H]1CN(C2=NOC(c3c(F)cccc3-c3c(F)cccc3F)C2)CC1(F)F (stereo partly drawn) [Example 170, N-{(3R)-4,4-difluoro-1-[5-(2′,3,6′-trifluoro[1,1′-biphenyl]-2-yl)-4,5-dihydro-1,2-oxazol-3-yl]pyrrolidin-3-yl}-1-fluoromethanesulfonamide]
109	CS(=O)(=O)N[C@@H]1CN(C2=NOC(c3c(F)cc(Cl)cc3-c3ncc(F)cc3F)C2)CC1(F)F (stereo partly drawn) [Example 171, N-[(3R)-1-{5-[4-chloro-2-(3,5-difluoropyridin-2-yl)-6-fluorophenyl]-4,5-dihydro-1,2-oxazol-3-yl}-4,4-difluoropyrrolidin-3-yl]methanesulfonamide]
99	CS(=O)(=O)N[C@@H]1CN(C2=NOC(c3c(F)cc(F)c(F)c3-c3c(F)cccc3F)C2)CC1(F)F (stereo partly drawn) [Example 172, N-{(3R)-4,4-difluoro-1-[5-(2′,3,5,6,6′-pentafluoro[1,1′-biphenyl]-2-yl)-4,5-dihydro-1,2-oxazol-3-yl]pyrrolidin-3-yl}methanesulfonamide]
100	O=S(=O)(CF)N[C@@H]1CN(C2=NOC(c3c(F)ccc(F)c3-c3c(F)cccc3F)C2)CC1(F)F (stereo partly drawn) [Example 173, N-{(3R)-4,4-difluoro-1-[5-(2′,3,6,6′-tetrafluoro[1,1′-biphenyl]-2-yl)-4,5-dihydro-1,2-oxazol-3-yl]pyrrolidin-3-yl}-1-fluoromethanesulfonamide]
107	O=S(=O)(CF)N[C@@H]1CN(C2=NOC(c3c(F)cc(F)c(F)c3-c3c(F)cccc3F)C2)CC1(F)F (stereo partly drawn) [Example 174, N-{(3R)-4,4-difluoro-1-[5-(2′,3,5,6,6′-pentafluoro[1,1′-biphenyl]-2-yl)-4,5-dihydro-1,2-oxazol-3-yl]pyrrolidin-3-yl}-1-fluoromethanesulfonamide]
112	COc1cccc(F)c1-c1cc(C)cc(F)c1C1CC(N2C[C@@H](NS(C)(=O)=O)C(F)(F)C2)=NO1 (stereo partly drawn) [Example 175, N-{(3R)-1-[5-(2′,3-difluoro-6′-methoxy-5-methyl[1,1′-biphenyl]-2-yl)-4,5-dihydro-1,2-oxazol-3-yl]-4,4-difluoropyrrolidin-3-yl}methanesulfonamide]
109	Cc1cc(F)c(C2CC(N3C[C@@H](NS(C)(=O)=O)C(F)(F)C3)=NO2)c(-c2ncccc2F)c1 (stereo partly drawn) [Example 176, N-[(3R)-4,4-difluoro-1-{5-[2-fluoro-6-(3-fluoropyridin-2-yl)-4-methylphenyl]-4,5-dihydro-1,2-oxazol-3-yl}pyrrolidin-3-yl]methanesulfonamide]
106	Cc1cc(F)c(C2CC(N3C[C@@H](NS(=O)(=O)CF)C(F)(F)C3)=NO2)c(-c2ncc(F)cc2F)c1 (stereo partly drawn) [Example 177, N-[(3R)-1-{5-[2-(3,5-difluoropyridin-2-yl)-6-fluoro-4-methylphenyl]-4,5-dihydro-1,2-oxazol-3-yl}-4,4-difluoropyrrolidin-3-yl]-1-fluoromethanesulfonamide]
